Measured values from ChEMBL document CHEMBL1131672, “6-(1-Hydroxyalkyl))penam sulfone derivatives as inhibitors of class A and class C beta-lactamases II” (Bioorg Med Chem Lett, 1999).
pIC50: −log10 of the molar value. Converted amounts (≈) assume the structure as drawn.

What was measured:
[1] = target: Beta-lactamase (Escherichia coli K-12, UniProt P00811); assay: Inhibitory activity against AmpC (class C) beta-lactamase
[2] = system: Escherichia coli; assay: In vitro inhibitory activity against Escherichia coli; type: functional
[3] = system: Serratia marcescens; assay: In vitro inhibitory activity against Serratia marcescens; type: functional
[4] = system: Escherichia coli; assay: In vivo inhibitory activity against Escherichia coli in mice; type: functional
[5] = system: Serratia marcescens; assay: In vivo inhibitory activity against Serratia marcescens in mice; type: functional
[6] = target: Beta-lactamase TEM (Escherichia coli, UniProt P62593); assay: Inhibitory activity against TEM-1 (class A) beta-lactamase
Beta-lactamase TEM, sequence (P62593 whole entry): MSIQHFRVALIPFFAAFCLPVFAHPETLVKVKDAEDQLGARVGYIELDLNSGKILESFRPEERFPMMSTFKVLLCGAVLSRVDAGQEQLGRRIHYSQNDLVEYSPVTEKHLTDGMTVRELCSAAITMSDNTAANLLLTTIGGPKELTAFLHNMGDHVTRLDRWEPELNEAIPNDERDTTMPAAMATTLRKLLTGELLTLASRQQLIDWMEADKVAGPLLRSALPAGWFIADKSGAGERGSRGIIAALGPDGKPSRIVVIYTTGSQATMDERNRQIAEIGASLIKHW

Beta-lactamase, sequence (P00811 whole entry): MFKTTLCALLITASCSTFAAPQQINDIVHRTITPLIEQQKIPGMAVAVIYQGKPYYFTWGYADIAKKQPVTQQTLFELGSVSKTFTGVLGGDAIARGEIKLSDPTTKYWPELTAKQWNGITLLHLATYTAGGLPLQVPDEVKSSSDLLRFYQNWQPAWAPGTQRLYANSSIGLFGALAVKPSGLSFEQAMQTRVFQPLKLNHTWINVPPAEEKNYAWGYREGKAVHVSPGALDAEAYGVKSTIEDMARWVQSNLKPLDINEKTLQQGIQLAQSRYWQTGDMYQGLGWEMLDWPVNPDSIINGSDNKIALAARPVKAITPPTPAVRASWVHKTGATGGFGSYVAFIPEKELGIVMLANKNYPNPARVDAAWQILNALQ

Structure (SMILES)	pIC50 [1]	MIC [2] [µg/mL]	MIC [3] [µg/mL]	ED50 [4] [mg/kg]	ED50 [5] [mg/kg]	pIC50 [6]
CC1(C=CC#N)[C@H](C(=O)O)N2C(=O)C[C@H]2S1(=O)=O (single isomer, unassigned) [Ro-481220]	5.95	4 (≈ 14.8 µM)	4 (≈ 14.8 µM)	15	82	7.38
C[C@]1(Cn2ccnn2)[C@H](C(=O)[O-])N2C(=O)[C@@H](CO)[C@H]2S1(=O)=O.[Na+]		2	16	3.6	125	8.22
CCN1CCN(C(=O)N[C@@H](C(=O)N[C@@H]2C(=O)N3[C@@H]2SC(C)(C)[C@@H]3C(=O)O)c2ccccc2)C(=O)C1=O [PIPERACILLIN]		> 64	32 (≈ 61.8 µM)	256	128	
C[C@]1(/C=C/C#N)[C@H](C(=O)[O-])N2C(=O)[C@@H](CO)[C@H]2S1(=O)=O.[Na+]	6.55	16	4			
C[C@]1(Cn2ccnn2)[C@H](C(=O)[O-])N2C(=O)C[C@H]2S1(=O)=O.[Na+] [TAZOBACTAM SODIUM]		2	32	7.7	144	
CO/N=C/C1(C)[C@H](C(=O)O)N2C(=O)[C@@H](CO)[C@H]2S1(=O)=O (single isomer, unassigned)	6.55	8 (≈ 26.1 µM)	16 (≈ 52.2 µM)			7.19
C[C@]1(/C=C\C#N)[C@H](C(=O)[O-])N2C(=O)[C@@H](CO)[C@H]2S1(=O)=O.[Na+]	6.57	4	8	4	16	
